Data as given in US20110230431A1, “FOSFOMYCIN/TOBRAMYCIN COMBINATIONS FOR THE TREATMENT AND PREVENTION OF OPHTHALMIC, OTOLOGICAL AND DERMATOLOGICAL INFECTIONS” (Gilead Sciences, Inc., priority 2008, published 2011).
Read-outs that look alike come from different tables or passages of the source.

What was measured:
P. aeruginosa [1] = assay: MIC by agar plate dilution method (CLSI); assay type: cell-based, Pseudomonas aeruginosa
Source text: P. aeruginosa strains isolated from patients with cystic fibrosis (CF) were obtained from Children's Hospital and Regional Medical Center (Seattle, Wash.). Clinical isolates of Escherichia coli and Staphylococcus aureus were obtained from The Jones Group Laboratories (JMI; North Liberty, Iowa) and The Clinical Microbiology Institute (CMI; Wilsonville, Oreg.). P. aeruginosa 27853, S. aureus 29213, and E. coli 25922 served as quality control strains^1 and were obtained from The America Type Culture Collection (ATCC; Manassas, Va.). P. aeruginosa ATCC 27853, a fosfomycin and tobramycin susceptible strain, was used in macromolecular biosynthesis and tobramycin uptake experiments. Stock cultures were maintained at −80° C. in Cation-Adjusted Mueller-Hinton Broth (CAMHB) (Remel; Lenexa, Kans.) supplemented with 20% glycerol (VWR: West Chester, Pa.). Cultures for routine use were grown on tryptic soy agar plates+5% sheeps blood (PML Microbiologicals Inc.; Wilsonville, Oreg.) and stored at 4° C.
MICs were determined by the agar plate dilution method according to CLSI guidelines (National Committee for Clinical Laboratory Standards. M7-A6. 6th ed. Villanova (Pa.): NCCLS, 2003; M100-S14. Villanova (Pa.): NCCLS, 2004).

E. coli = assay type: cell-based, Escherichia coli
Description: (§1) Development of resistance after a single exposure to antibiotic was determined for both clinical and reference isolates of P. aeruginosa, S. aureus, and E. coli. Late Log-phase cultures were centrifuged at 1,400×g at room temperature for 20 min and the cell pellets resuspended in CAMHB. […] The culture plates were incubated at 37° C. for 48 h and the number of colonies on each plate was enumerated manually. The spontaneous mutation frequency (SMF) resulting in antibiotic resistance was calculated by dividing the number of bacteria growing at the defined antibiotic concentration by the number of bacteria in the inoculum (Martinex, J L, Antimicrob Agents Chemother 2000; 44 (1):1771-1777).

S. aureus = assay type: cell-based, Staphylococcus aureus
Description: as §1

[2] = test system: Cell Wall Synthesis in P. aeruginosa ATCC 27853; assay: Macromolecular biosynthesis: 3H-N-acetyl-D-glucosamine incorporation; assay type: cell-based, Pseudomonas aeruginosa; conditions: at 2 h relative to no-drug control, single experiment
Description: Picataway, N.J.) and N-acetyl-D-Glucosamine (^3H-NAG) (GE Healthcare Bio-Sciences), respectively (Baum, E Z, Antimicrob Agents Chernother 2001; 45 (11): 3182-3188). A single colony of P. aeruginosa ATCC 27853 was inoculated into 10 mL of CAMHB and incubated for 16 h, at 37° C., 200 rpm in a shaking water bath. […] At various time points, 100 μl aliquots (triplicate) of culture were removed and added to 100 μl of 20% TCA (VWR) in 96-well flat bottom trays (VWR). Plates were incubated on crushed ice for 60 min to precipitate the incorporated ^3H-precursors. Samples were harvested onto glass fibre filters (GFC) (PerkinElmer; Waltham, Mass.). Filters were washed two times with 35 mL of normal saline to remove unincorporated isotope followed by one wash with 35 mL of 90% ETOH (VWR). Filters were dried under a lamp for 1 h to reduce remaining moisture and then sealed in bags containing 5 mL of scintillation cocktail (Betaplate Scint; PerkinElmer). Counts per minute (CPM) were determined using a Wallac MicroBeta Trilux (PerkinElmer). Mean CPM±standard deviation (SD) were determined for each treatment group. Background counts consisting of a media-only sample were subtracted from the no-drug and antibiotic treatment groups. The percent inhibition of incorporation was determined relative to the no-drug controls. The activities of the three drugs were compared by calculating the time to 50% inhibition (T1/2), and statistical differences at each time point were evaluated by the Analysis of Variance (ANOVA; GraphPad Prisma software package 3.03; GraphPad Software, Inc., San Diego, Calif.). Each curve represents 4 replicate experiments, each time point performed in triplicate.

P. aeruginosa ATCC 27853 = assay: Time-kill experiments in CAMHB with 2% mucin; assay type: cell-based, Pseudomonas aeruginosa
Description: Time-kill experiments were performed according to a modified CLSI method (National Committee for Clinical Laboratory Standards. M-26A. Villanova (Pa.): NCCLS, 1999). […] Bacterial cultures and antibiotic(s) were incubated at 37° C. in a shaking water bath (200 rpm) and killing activity assessed at 0, 1, 2, 4, 6 and 24 h. Antibiotics that reduced the original inoculum by ≧3-Log10 were considered bactericidal. Antibiotics that reduced the original inoculum by ≦2-Log10 were considered bacteriostatic.

P. aeruginosa [3] = assay type: cell-based, Pseudomonas aeruginosa
Description: as §1

tobramycin sulfate
MIC (P. aeruginosa [1]; P. aeruginosa ATCC 27853): 0.5 µg/mL
MIC (P. aeruginosa [1]; P. aeruginosa C002): 0.5 µg/mL
MIC (P. aeruginosa [1]; P. aeruginosa C003): 0.5 µg/mL
MIC (P. aeruginosa [1]; P. aeruginosa C013): 0.5 µg/mL
MIC (P. aeruginosa [1]; P. aeruginosa C014): 0.5 µg/mL
Frequency of Resistance 4× MIC (E. coli; E. coli ATCC 25922, 4× MIC): 2.5 × 10^−6
Frequency of Resistance 8× MIC (E. coli; E. coli ATCC 25922, 8× MIC): 1.5 × 10^−7
Frequency of Resistance 16× MIC (E. coli; E. coli ATCC 25922, 16× MIC): 8.7 × 10^−8
Frequency of Resistance 4× MIC (E. coli; E. coli C032, 4× MIC): 1.3 × 10^−6
Frequency of Resistance 8× MIC (E. coli; E. coli C032, 8× MIC): 5.5 × 10^−6
Frequency of Resistance 16× MIC (E. coli; E. coli C032, 16× MIC): 6.2 × 10^−7
Frequency of Resistance 4× MIC (E. coli; E. coli C036, 4× MIC): 4.4 × 10^−6
Frequency of Resistance 8× MIC (E. coli; E. coli C036, 8× MIC): 4.7 × 10^−7
Frequency of Resistance 16× MIC (E. coli; E. coli C036, 16× MIC): 1.9 × 10^−9
Frequency of Resistance 4× MIC (E. coli; E. coli C037, 4× MIC): 1.0 × 10^−6
Frequency of Resistance 8× MIC (E. coli; E. coli C037, 8× MIC): 4.4 × 10^−6
Frequency of Resistance 16× MIC (E. coli; E. coli C037, 16× MIC): 1.1 × 10^−7
Frequency of Resistance 4× MIC (E. coli; E. coli C294, 4× MIC): 6.6 × 10^−5
Frequency of Resistance 8× MIC (E. coli; E. coli C294, 8× MIC): 1.3 × 10^−6
Frequency of Resistance 16× MIC (E. coli; E. coli C294, 16× MIC): <7.2 × 10^−9
Frequency of Resistance 4× MIC (S. aureus; S. aureus ATCC 29213, 4× MIC): 1.6 × 10^−7
Frequency of Resistance 8× MIC (S. aureus; S. aureus ATCC 29213, 8× MIC): 3.9 × 10^−8
Frequency of Resistance 16× MIC (S. aureus; S. aureus ATCC 29213, 16× MIC): <1.8 × 10^−10
Frequency of Resistance 4× MIC (S. aureus; S. aureus C051, 4× MIC): 3.5 × 10^−6
Frequency of Resistance 8× MIC (S. aureus; S. aureus C051, 8× MIC): 1.5 × 10^−8
Frequency of Resistance 16× MIC (S. aureus; S. aureus C051, 16× MIC): <2.0 × 10^−10
Frequency of Resistance 4× MIC (S. aureus; S. aureus C053, 4× MIC): 2.0 × 10^−7
Frequency of Resistance 16× MIC (S. aureus; S. aureus C053, 16× MIC): <2.3 × 10^−10
Frequency of Resistance 4× MIC (S. aureus; S. aureus C055, 4× MIC): 3.8 × 10^−7
Frequency of Resistance 8× MIC (S. aureus; S. aureus C055, 8× MIC): <4.3 × 10^−9
Frequency of Resistance 16× MIC (S. aureus; S. aureus C055, 16× MIC): <2.3 × 10^−10
Frequency of Resistance 4× MIC (S. aureus; S. aureus C057, 4× MIC): 1.1 × 10^−6
Frequency of Resistance 8× MIC (S. aureus; S. aureus C057, 8× MIC): <1.4 × 10^−10
Frequency of Resistance 16× MIC (S. aureus; S. aureus C057, 16× MIC): <3.2 × 10^−10
% Inhibition Cell Wall ([2]; 0.8 μg/mL): 4%
% Inhibition Cell Wall ([2]; 1.6 μg/mL): 10%
% Inhibition Cell Wall ([2]; 3.2 μg/mL): 36%
killing activity at 24 h (P. aeruginosa ATCC 27853; 24 h, FT4:1 16 μg/mL, fosfomycin 12.8 μg/mL, tobramycin 3.2 μg/mL, mucin, FIG. 4): re-growth of the bacterial culture
killing activity (P. aeruginosa ATCC 27853; FT4:1 at 4×MIC (16 μg/mL), component weights fosfomycin 12.8 μg/mL, tobramycin 3.2 μg/mL, mucin, FIG. 4): bacteriostatic killing
bacterial killing on increasing the concentration (P. aeruginosa ATCC 27853; increase from 2 μg/mL to 4 μg/mL (2-fold), FIG. 2): > 4 Log10
killing activity (bactericidal ≧3-Log10, bacteriostatic ≦2-Log10) (P. aeruginosa ATCC 27853; multiples of the MIC, FIG. 1-3): rapidly bactericidal
enhancement of bacterial killing in the presence of fosfomycin (P. aeruginosa ATCC 27853; tobramycin 3.2 μg/mL in the presence of 12.8 μg/mL fosfomycin, FIG. 4): 3 Log10 CFU/mL
Frequency of Resistance 4× MIC (P. aeruginosa [3]; P. aeruginosa ATCC 27853, 4× MIC): 3.0 × 10^−5
Frequency of Resistance 8× MIC (P. aeruginosa [3]; P. aeruginosa ATCC 27853, 8× MIC): 2.2 × 10^−7
Frequency of Resistance 16× MIC (P. aeruginosa [3]; P. aeruginosa ATCC 27853, 16× MIC): 1.6 × 10^−8
Frequency of Resistance 4× MIC (P. aeruginosa [3]; P. aeruginosa C002, 4× MIC): 1.1 × 10^−5
Frequency of Resistance 8× MIC (P. aeruginosa [3]; P. aeruginosa C002, 8× MIC): 1.1 × 10^−7
Frequency of Resistance 16× MIC (P. aeruginosa [3]; P. aeruginosa C002, 16× MIC): 4.4 × 10^−8
Frequency of Resistance 4× MIC (P. aeruginosa [3]; P. aeruginosa C003, 4× MIC): 4.2 × 10^−5
Frequency of Resistance 8× MIC (P. aeruginosa [3]; P. aeruginosa C003, 8× MIC): 1.8 × 10^−7
Frequency of Resistance 16× MIC (P. aeruginosa [3]; P. aeruginosa C003, 16× MIC): 7.2 × 10^−8
Frequency of Resistance 4× MIC (P. aeruginosa [3]; P. aeruginosa C013, 4× MIC): 1.4 × 10^−6
Frequency of Resistance 8× MIC (P. aeruginosa [3]; P. aeruginosa C013, 8× MIC): 3.7 × 10^−6
Frequency of Resistance 16× MIC (P. aeruginosa [3]; P. aeruginosa C013, 16× MIC): 8.2 × 10^−7
Frequency of Resistance 4× MIC (P. aeruginosa [3]; P. aeruginosa C014, 4× MIC): 1.3 × 10^−6
Frequency of Resistance 8× MIC (P. aeruginosa [3]; P. aeruginosa C014, 8× MIC): 1.1 × 10^−7
Frequency of Resistance 16× MIC (P. aeruginosa [3]; P. aeruginosa C014, 16× MIC): 7.9 × 10^−7
